According to patent US20080045609A1, “METHODS AND THERAPEUTICS TO FACILITATE LIVER REPAIR” (priority 2006, published 2008):

How the values were obtained:
liver = settings: cited from earlier work
NASH = assay: clinical trial in patients with moderately severe NASH; format: in vivo, human; settings: subcutaneous delivery, monotherapy
Experimental: The dosage and delivery mechanism for relaxin H2 is subcutaneous delivery of the molecule based on the earlier reports for the scleroderma trial. […] The dosage of relaxin H2 in the present trial is the most efficacious level that was used in the earlier reported scleroderma trial, a subcutaneous relaxin infusion rate of 25 μg/kg/day, with the mode of delivery via continuous subcutaneous delivery (e.g., through implantation of an osmotic pump). The simultaneous dosage of follistatin will be 50 μg/kg/day through subcutaneous delivery.
A formulation comprised of rH2 relaxin and recombinant human follistatin 315 is used to improve prognosis and decrease on-going damage caused from on-going hepatic damage in patients diagnosed with moderately severe NASH. The measured end points are indicative of a decrease of reduction of area of damage in the liver and increased liver enzyme function. […]
rH2 relaxin and follistatin administration are studied in a small patient population of NASH and an improvement in liver enzyme levels and liver function is measured as a primary end point. A decrease in on-going damage as determined by imaging techniques is also measured. […] In addition, elements such as diet and exercise are carefully monitored in the trial populations as these may impact on the improvement of the underlying metabolic disorder and potentially skew the results.

HSC = settings: cited from earlier work
CCl4-exposed rats = settings: cited from earlier work
tumor cell = settings: in vitro or in vivo studies; cited from earlier work
[1] = tested on: progressive pulmonary fibrosis; settings: patients with idiopathic pulmonary fibrosis, scleroderma or sarcoidosis resistant to three months of high-dose glucocorticoids; cited from earlier work
lung fibroblasts = settings: in vitro; cited from earlier work
gene for TGF-β1 = settings: bleomycin-induced model of lung fibrosis, exogenous interferon-γ; cited from earlier work
[2] = human, in vivo; cited from earlier work
[3] = tested on: rat model of hypertension; settings: cited from earlier work
[4] = tested on: hepatic stellate cells (HSCs); settings: rat CCl4 model of liver damage; cited from earlier work

## follistatin
liver; after hepatic resection
  liver weight: significantly increases liver weight
liver; following partial hepatectomy
  cell replication and liver size: actively promote cell replication and increase liver size
NASH
  improvement versus vehicle (liver enzyme levels, liver function): significant improvement over those treated with vehicle
HSC
  TGF-β-induced secretion of collagen: inhibit TGF-β-induced secretion of collagen from HSC
CCl4-exposed rats; CCl4-exposed rats treated with the peptide
  reduction in fibrosis: 32%
CCl4-exposed rats; CCl4-exposed rats, during treatment, effect maximal at week 4
  decrease of hepatocyte apoptosis: 87%
Tumor cell
  tumor cell growth: did not accelerate tumor cell growth

## interferon γ-1b
[1]
  clinical efficacy in progressive pulmonary fibrosis: effective

## interferon-γ
Lung fibroblasts
  proliferation of lung fibroblasts: inhibits the proliferation of lung fibroblasts in a dose-dependent manner
  synthesis of protein in fibroblasts: reduces the synthesis of protein in fibroblasts
Gene for TGF-β1
  transcription of the gene for TGF-β1: down-regulated

## relaxin
[2]
  adverse events: few adverse events
[3]
  fibrosis associated with organ damage: reversing cardiac and renal fibrosis
[4]
  collagen deposition by hepatic stellate cells: inhibit collagen deposition by hepatic stellate cells
NASH
  improvement versus vehicle (liver enzyme levels, liver function): significant improvement over those treated with vehicle
